Results from US20240158446A1, “CYCLIC COMPOUND HAVING SELECTIVE INHIBITORY ACTION ON KRAS OVER HRAS AND NRAS” (CHUGAI SEIYAKU KABUSHIKI KAISHA, priority 2021, published 2024).
Read-outs that look alike come from different tables or passages of the source. *1 amine or outer side, *2 acyl side, *3 side chain or, on linkers, in order; H or OH if unused. Where a SMILES comes first, the peptide text is derived from it. Bridges are numbered along the chain shown (N, C = ends). [ ]: non-standard residue; d: D form. The star is where a group is joined. hPhe(3-Cl-4-CF3) = N[C@@H](CCc1ccc(C(F)(F)F)c(Cl)c1)C(=O)O; NPrPhe(4-CF3) = CCCN[C@@H](Cc1ccc(C(F)(F)F)cc1)C(=O)O; NMeGly(cPent) = CN[C@H](C(=O)O)C1CCCC1; NMeD = CN[C@@H](CC(=O)O)C(=O)O; X1 = O=C(CN(CC(F)F)[*:1])[*:2]; NMeL = CN[C@@H](CC(C)C)C(=O)O; Morpholide = C1CN(*)CCO1; Ac5c = NC1(C(=O)O)CCCC1; Sar = CNCC(=O)O

Legend:
[1] = molecular target: GDP-bound KRAS wild-type protein (Homo sapiens, UniProt P01116); test: Binding to KRAS by surface plasmon resonance (SPR), Single Cycle Kinetics; settings: GDP-bound KRAS wild-type protein, read-out: KRAS KD
Chain of GDP-bound KRAS wild-type protein (P01116 whole entry): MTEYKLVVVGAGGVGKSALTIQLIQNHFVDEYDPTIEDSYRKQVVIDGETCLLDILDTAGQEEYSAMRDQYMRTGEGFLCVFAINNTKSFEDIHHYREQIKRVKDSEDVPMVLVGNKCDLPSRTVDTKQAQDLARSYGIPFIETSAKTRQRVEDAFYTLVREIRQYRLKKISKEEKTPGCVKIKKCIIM

[2] = molecular target: GDP-bound NRAS wild-type protein (Homo sapiens, UniProt P01111); test: Binding to NRAS by surface plasmon resonance (SPR), Single Cycle Kinetics; settings: SPR
Chain of GDP-bound NRAS wild-type protein (P01111 whole entry): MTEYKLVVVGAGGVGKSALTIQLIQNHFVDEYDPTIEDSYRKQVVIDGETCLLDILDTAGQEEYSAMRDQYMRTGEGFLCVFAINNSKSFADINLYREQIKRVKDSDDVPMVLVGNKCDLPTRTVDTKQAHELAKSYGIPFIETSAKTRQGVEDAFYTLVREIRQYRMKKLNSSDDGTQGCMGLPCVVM

[3] = molecular target: GDP-bound HRAS wild-type protein (Homo sapiens, UniProt P01112); test: Binding to HRAS by surface plasmon resonance (SPR), Single Cycle Kinetics; settings: SPR
Chain of GDP-bound HRAS wild-type protein (P01112 whole entry): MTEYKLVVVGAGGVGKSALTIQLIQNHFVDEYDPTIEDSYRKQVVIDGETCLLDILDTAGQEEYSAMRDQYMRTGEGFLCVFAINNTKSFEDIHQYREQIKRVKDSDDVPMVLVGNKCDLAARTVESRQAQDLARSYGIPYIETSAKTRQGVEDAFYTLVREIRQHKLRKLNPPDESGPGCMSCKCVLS

[4] = test system: human lung cancer strain NCI-H441;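 further: cell proliferation inhibition after four days measured by CellTiter-Glo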
[5] = GDP-bound NRAS wild-type protein vs GDP-bound KRAS wild-type protein
[6] = GDP-bound HRAS wild-type protein vs GDP-bound KRAS wild-type protein
[7] = SPR, Single Cycle Kinetics, 1:1 binding model
[8] = GDP-bound NRAS wild-type protein vs GDP-bound KRAS wild-type protein, KD ratio class
[9] = GDP-bound HRAS wild-type protein vs GDP-bound KRAS wild-type protein, KD ratio class

Structure (SMILES)	Kd ([1]; SPR, Single Cycle Kinetics)	NRAS/KRAS (ratio of KD value for NRAS to KD value for KRAS) [2, 5]	HRAS/KRAS (ratio of KD value for HRAS to KD value for KRAS) [3, 6]	IC50 [4]	Kd [1, 7]	NRAS/KRAS (ratio of KD value for NRAS to KD value for KRAS) [2, 8]	HRAS/KRAS (ratio of KD value for HRAS to KD value for KRAS) [3, 9]	further results
CCO[C@@H]1C[C@H]2C(=O)NC3(CCC3)C(=O)N(C)[C@@H](C3CCCC3)C(=O)N(C)[C@H](C(=O)N3CCOCC3)CC(=O)N(C)[C@@H](Cc3cccs3)C(=O)N[C@@H]([C@@H](C)CC)C(=O)N(C)CC(=O)N(C)[C@H]3CCCCCN(C3=O)[C@@H](Cc3ccc(F)cc3)C(=O)N(C)CC(=O)N[C@@H](CCc3cc(F)c(C(F)(F)F)c(F)c3)C(=O)N2C1 [PP1183]	0.26 nM	B (a compound having 3 or more and less than 10 is denoted as B)	B (a compound having 3 or more and less than 10 is denoted as B)	27.8 nM				
CC[C@H](C)[C@@H]1NC(=O)[C@H](CC)N(C)C(=O)C[C@@H](C(=O)N(C)C)N(C)C(=O)[C@H](C2CCCC2)N(C)C(=O)C2(CCCC2)NC(=O)[C@@H]2CCCN2C(=O)[C@H](CCc2cc(F)c(C(F)(F)F)c(F)c2)NC(=O)CN(C)C(=O)[C@H](Cc2ccc(C(F)(F)F)cc2)N2C[C@H](C)[C@H](C)C[C@@H](C2=O)N(C)C(=O)CN(C)C1=O [PP1364]				7.1 nM	0.05 nM	A (a compound having 10 or more and less than 20 is denoted as A)	B (a compound having 3 or more and less than 10 is denoted as B)	
CCC(CC)[C@H]1C(=O)N(C)[C@H](C(=O)N(C)C)CC(=O)N(C)[C@@H](COC)C(=O)N[C@@H]([C@@H](C)CC)C(=O)N(C)CC(=O)N(C)[C@H]2C/C=C\CCN(C2=O)[C@@H](CC2CCC(F)(F)CC2)C(=O)N(C)CC(=O)N[C@@H](CCc2ccc(C(F)(F)F)c(OC)c2)C(=O)N2C[C@@H](C)C[C@H]2C(=O)NC2(CC(C)(C)C2)C(=O)N1C [PP2442]	0.97 nM	A (a compound having 10 or more and less than 20 is denoted as A)	A (a compound having 10 or more and less than 20 is denoted as A)	79.7 nM				
CCO[C@@H]1C[C@H]2C(=O)NC3(CCCC3)C(=O)N(C)[C@@H](C3CCCC3)C(=O)N(C)[C@H](C(=O)N3CCOCC3)CC(=O)N(C)[C@@H](CC)C(=O)N[C@@H]([C@@H](C)CC)C(=O)N(C)CC(=O)N(C)[C@H]3C[C@@H](C)[C@@H](C)CN(C3=O)[C@@H](Cc3ccc(C(F)(F)F)cc3)C(=O)N(C)CC(=O)N[C@@H](CCc3ccc(C(F)(F)F)c(Cl)c3)C(=O)N2C1 [PP1359]				3.2 nM	0.068 nM	A (a compound having 10 or more and less than 20 is denoted as A)	B (a compound having 3 or more and less than 10 is denoted as B)	
CCO[C@@H]1C[C@H]2C(=O)NC3(CC(C)(C)C3)C(=O)N(C)[C@@H](C(CC)CC)C(=O)N(C)[C@H](C(=O)N(C)C)CC(=O)N(C)[C@@H](COC)C(=O)N[C@@H]([C@@H](C)CC)C(=O)N(C)CC(=O)N(C)[C@H]3C/C=C\CCN(C3=O)[C@@H](CC3CCCCC3)C(=O)N(C)CC(=O)N[C@@H](CCc3cc(F)c(C(F)(F)F)c(F)c3)C(=O)N2C1 [PP2456]	1.1 nM	A (a compound having 10 or more and less than 20 is denoted as A)	A (a compound having 10 or more and less than 20 is denoted as A)	18.8 nM				
CCO[C@@H]1C[C@H]2C(=O)NC(C)(C)C(=O)N(C)[C@@H](C3CCCC3)C(=O)N(C)[C@H](C(=O)N(C)C)CC(=O)N(C)[C@@H](CC)C(=O)N[C@@H]([C@@H](C)CC)C(=O)N(C)CC(=O)N(C)[C@H]3C/C=C\CCN(C3=O)[C@@H](Cc3ccc(C(F)(F)F)cc3)C(=O)N(C)CC(=O)N[C@@H](CCc3cc(F)c(C(F)(F)F)c(F)c3)C(=O)N2C1 [PP1280]				34.4 nM	0.15 nM	A (a compound having 10 or more and less than 20 is denoted as A)	A (a compound having 10 or more and less than 20 is denoted as A)	
CCCN1C(=O)CN(C)C(=O)CN(CC(F)F)C(=O)[C@H]([C@@H](C)CC)NC(=O)[C@H](CC(C)C)N(C)C(=O)C[C@@H](C(=O)N2CCOCC2)N(C)C(=O)[C@H](C2CCCC2)N(C)C(=O)C2(CCCC2)NC(=O)[C@@H]2CCCN2C(=O)[C@H](CCc2ccc(C(F)(F)F)c(Cl)c2)NC(=O)CN(C)C(=O)[C@@H]1Cc1ccc(C(F)(F)F)cc1 [PP0752] ([NMeL]I[X1][Sar][NPrPhe(4-CF3)][Sar][hPhe(3-Cl-4-CF3)]P[Ac5c][NMeGly(cPent)][NMeD]-Morpholide; lactam N-11)				25.8 nM				Kd ([1]; SPR Single Cycle Kinetics, 1:1 binding model): 0.54 nM; NRAS/KRAS (ratio of KD value with respect to NRAS to KD value with respect to KRAS) [2, 5]: B (a compound having 3 or more and less than 10 is denoted as B); HRAS/KRAS (ratio of KD value with respect to HRAS to KD value with respect to KRAS) [3, 6]: B (a compound having 3 or more and less than 10 is denoted as B)
CCO[C@@H]1C[C@H]2C(=O)NC3(CCC3)C(=O)N(C)[C@@H](C3CCCC3)C(=O)N(C)[C@H](C(=O)N3CCOCC3)CC(=O)N(C)[C@@H](CC)C(=O)N[C@@H]([C@@H](C)CC)C(=O)N(C)CC(=O)N(C)[C@H]3C[C@@H](C)[C@@H](C)CN(C3=O)[C@@H](Cc3ccc(C(F)(F)F)cc3)C(=O)N(C)CC(=O)N[C@@H](CCc3cc(F)c(C(F)(F)F)c(F)c3)C(=O)N2C1 [PP1354]				3.6 nM	0.056 nM	A (a compound having 10 or more and less than 20 is denoted as A)	B (a compound having 3 or more and less than 10 is denoted as B)	
CCCO[C@@H]1C[C@H]2C(=O)NC3(CC(C)(C)C3)C(=O)N(C)[C@@H](C3CCCC3)C(=O)N(C)[C@H](C(=O)N(C)C)CC(=O)N(C)[C@H]3CCCCc4ccc(cc4)C[C@@H](C(=O)N(C)CC(=O)N[C@@H](CCc4ccc(C(F)(F)F)c(OC)c4)C(=O)N2C1)N1CC/C=C\C[C@@H](C1=O)N(C)C(=O)CN(C)C(=O)[C@H]([C@@H](C)CC)NC3=O [PP3077]	0.04 nM	A (a compound having 10 or more and less than 20 is denoted as A)	B (a compound having 3 or more and less than 10 is denoted as B)					ratio of the KD value with respect to GDP-bound NRAS wild-type protein to the KD value with respect to KRAS ([2]; KD(NRAS)/KD(KRAS)): A (a compound having 10 or more and less than 20 is denoted as A); ratio of the KD value with respect to GDP-bound HRAS wild-type protein to the KD value with respect to KRAS ([3]; KD(HRAS)/KD(KRAS)): B (a compound having 3 or more and less than 10 is denoted as B); IC50 ([4]; read-out: NCI-H441 cell proliferation inhibitory activity, 50% proliferation inhibitory concentration (IC50 value), NCI-H441, four days, CellTiter-Glo): 0.8 nM
CC[C@H](C)[C@@H]1NC(=O)[C@H](CC)N(C)C(=O)C[C@@H](C(=O)N(C)C)N(C)C(=O)[C@H](C2CCCC2)N(C)C(=O)C2(CCC2)NC(=O)[C@H](COC)N(C)C(=O)[C@H](CCc2cc(F)c(C(F)(F)F)c(F)c2)NC(=O)CN(C)C(=O)[C@H](Cc2ccc(C(F)(F)F)cc2)N2CC/C=C\C[C@@H](C2=O)N(C)C(=O)CN(C)C1=O [PP1145]	0.21 nM	A (a compound having 10 or more and less than 20 is denoted as A)	B (a compound having 3 or more and less than 10 is denoted as B)	140 nM				
CCO[C@@H]1C[C@H]2C(=O)NC3(CCC3)C(=O)N(C)[C@@H](C3CCCC3)C(=O)N(C)[C@H](C(=O)N3CCCCC3)CC(=O)N(C)[C@@H](C)C(=O)N[C@@H]([C@@H](C)CC)C(=O)N(C)CC(=O)N(C)[C@H]3C/C=C\CCN(C3=O)[C@@H](Cc3ccc(C(F)(F)F)cc3)C(=O)N(C)CC(=O)N[C@@H](CCc3cc(F)c(C(F)(F)F)c(F)c3)C(=O)N2C1 [PP1292]				24.6 nM	0.16 nM	A (a compound having 10 or more and less than 20 is denoted as A)	A (a compound having 10 or more and less than 20 is denoted as A)	
CCCC[C@H]1C(=O)N[C@@H]([C@@H](C)CC)C(=O)N(C)CC(=O)N(C)[C@H]2C/C=C\CCN(C2=O)[C@@H](Cc2ccc(C(F)(F)F)cc2)C(=O)N(C)CC(=O)N[C@@H](CCc2ccc(C(F)(F)F)c(OC)c2)C(=O)N2C[C@H](OCC)C[C@H]2C(=O)NC2(CC(C)(C)C2)C(=O)N(C)[C@@H](C2CCCC2)C(=O)N(C)[C@H](C(=O)N(C)C)CC(=O)N1C [PP1561]				2.7 nM	0.064 nM	A (a compound having 10 or more and less than 20 is denoted as A)	B (a compound having 3 or more and less than 10 is denoted as B)	
CCO[C@@H]1C[C@H]2C(=O)NC3(CCC3)C(=O)N(C)[C@@H](C3CCCC3)C(=O)N(C)[C@H](C(=O)N(C)C)CC(=O)N(C)[C@@H](CC)C(=O)N[C@@H]([C@@H](C)CC)C(=O)N(C)CC(=O)N(C)[C@H]3C/C=C\CCN(C3=O)[C@@H](CC3CCC(F)(F)CC3)C(=O)N(C)CC(=O)N[C@@H](CCc3cc(F)c(C(F)(F)F)c(F)c3)C(=O)N2C1 [PP1452, (2S,8S,12R,14S,20S,23S,27S,30S,36S,38Z)-20-cyclopentyl-2-[(4,4-difluorocyclohexyl)methyl]-8-[2-[3,5-difluoro-4-(trifluoromethyl)phenyl]ethyl]-12-ethoxy-27-ethyl-N,N,4,19,22,26,32,35-octamethyl-30-[(1S)-1-methylpropyl]-3,6,9,15,18,21,25,28,31,34,42-undecaoxo-spiro[1,4,7,10,16,19,22,26,29,32,35-undecazatricyclo[34.5.1.0^10,14]dotetracont-38-ene-17,1′-cyclobutane]-23-carboxamide]				30.5 nM	0.13 nM	A (a compound having 10 or more and less than 20 is denoted as A)	A (a compound having 10 or more and less than 20 is denoted as A)	
